PubChem BioAssay (NCI)
“And” between values parts separate entries of the source, which are not always exact repeats. Identical values can stand only once.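 Five compound concentrations were applied to cells in 96-well plates for 48 hours; endpoints were derived by simple linear interpolation of the resulting dose-response curve. GI50 = concentration required for 50% inhibition of growth. TGI is the concentration that stops growth completely.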

Assays:
Test in all cases: NCI tumour cell line growth inhibition, 48 h
HCC-2998 colon = test system: HCC-2998 colon
SNB-78 CNS = test system: SNB-78 CNS
HL-60(TB) leukemia = test system: HL-60(TB) leukemia
HOP-92 NSCLC = test system: HOP-92 NSCLC
HS 578T breast = test system: HS 578T breast
SN12C renal = test system: SN12C renal
HOP-18 NSCLC = test system: HOP-18 NSCLC
UACC-62 melanoma = test system: UACC-62 melanoma
K-562 leukemia = test system: K-562 leukemia
SK-MEL-28 melanoma = test system: SK-MEL-28 melanoma
DLD-1 colon = test system: DLD-1 colon
A498 renal = test system: A498 renal
MDA-MB-435 = test system: MDA-MB-435
UO-31 renal = test system: UO-31 renal
SF-539 CNS = test system: SF-539 CNS
IGROV1 ovarian = test system: IGROV1 ovarian
NCI-H23 lung = test system: NCI-H23 lung
DU-145 prostate = test system: DU-145 prostate
NCI-H522 lung = test system: NCI-H522 lung
HOP-62 NSCLC = test system: HOP-62 NSCLC
MCF7 breast = test system: MCF7 breast
M19-MEL melanoma = test system: M19-MEL melanoma
XF 498 CNS = test system: XF 498 CNS
T-47D breast = test system: T-47D breast
DMS 273 small cell lung = test system: DMS 273 small cell lung
MDA-MB-231 breast = test system: MDA-MB-231 breast
KM12 colon = test system: KM12 colon
SK-MEL-2 melanoma = test system: SK-MEL-2 melanoma
MOLT-4 leukemia = test system: MOLT-4 leukemia
LXFL 529 NSCLC = test system: LXFL 529 NSCLC
UACC-257 melanoma = test system: UACC-257 melanoma
KM20L2 colon = test system: KM20L2 colon
CAKI-1 renal = test system: CAKI-1 renal
COLO 205 colon = test system: COLO 205 colon
PC-3 prostate = test system: PC-3 prostate
SW-620 colon = test system: SW-620 colon
SF-295 CNS = test system: SF-295 CNS
ACHN renal = test system: ACHN renal
A549 NSCLC = test system: A549 NSCLC
OVCAR-4 ovarian = test system: OVCAR-4 ovarian
TK-10 renal = test system: TK-10 renal
RPMI-8226 leukemia = test system: RPMI-8226 leukemia
OVCAR-8 ovarian = test system: OVCAR-8 ovarian
SNB-75 CNS = test system: SNB-75 CNS
SK-MEL-5 melanoma = test system: SK-MEL-5 melanoma
RXF-631 renal = test system: RXF-631 renal
NCI/ADR-RES ovarian = test system: NCI/ADR-RES ovarian
SNB-19 CNS = test system: SNB-19 CNS
BT-549 breast = test system: BT-549 breast
DMS 114 small cell lung = test system: DMS 114 small cell lung
SR leukemia = test system: SR leukemia
786-0 renal = test system: 786-0 renal
U251 CNS = test system: U251 CNS
NCI-H226 lung = test system: NCI-H226 lung
CCRF-CEM leukemia = test system: CCRF-CEM leukemia
NCI-H460 lung = test system: NCI-H460 lung
LOX IMVI melanoma = test system: LOX IMVI melanoma
HCT-116 colon = test system: HCT-116 colon
HCT-15 colon = test system: HCT-15 colon

For `CC(C)(O)/C=C/C(=O)[C@](C)(O)[C@H]1[C@H](O)C[C@@]2(C)[C@@H]3CC=C4[C@@H](C=C(O)C(=O)C4(C)C)[C@]3(C)C(=O)C[C@]12C`, the GI50 (HCC-2998 colon) was 0.319 µM, the GI50 (SNB-78 CNS) was 0.737 µM and the TGI (SNB-78 CNS) was 1.61 µM and 5.53 µM. The GI50 (HL-60(TB) leukemia) was 0.265 µM and 1.1 µM, the TGI (HL-60(TB) leukemia) was 0.935 µM and 2.54 µM and the GI50 (HOP-92 NSCLC) was 0.255 µM. For the same compound, the TGI (HS 578T breast) was 7.66 µM, the GI50 (SN12C renal) was 0.431 µM and the GI50 (HOP-18 NSCLC) was 0.276 µM and 0.602 µM. For the same compound, the TGI (HOP-18 NSCLC) was 1.33 µM and 1.91 µM, the TGI (UACC-62 melanoma) was 4.97 µM and 8.94 µM and 1.76 µM and the TGI (K-562 leukemia) was > 9.25 µM and 11.2 µM. For the same compound, the TGI (SK-MEL-28 melanoma) was 0.581 µM and 1.69 µM and 0.244 µM, the GI50 (DLD-1 colon) was 0.291 µM and 0.721 µM and the TGI (DLD-1 colon) was > 6.13 µM and 6.58 µM. The GI50 (A498 renal) was 0.189 µM and 0.522 µM, the TGI (A498 renal) was 0.392 µM and 1.09 µM and the TGI (MDA-MB-435) was 0.885 µM. For the same compound, the GI50 (UO-31 renal) was 0.195 µM, the GI50 (SF-539 CNS) was 0.253 µM and the GI50 (IGROV1 ovarian) was 0.27 µM. For the same compound, the TGI (IGROV1 ovarian) was 0.688 µM and 4.45 µM and 4.6 µM, the TGI (NCI-H23 lung) was > 7.19 µM and 1.15 µM and the TGI (DU-145 prostate) was 1.9 µM. It also gave a GI50 (NCI-H522 lung) of 0.278 µM, a GI50 (HOP-62 NSCLC) of 0.442 µM and a TGI (MCF7 breast) of 10.5 µM. The GI50 (M19-MEL melanoma) was 0.929 µM and 2.16 µM, the TGI (M19-MEL melanoma) was > 10 µM and the TGI (XF 498 CNS) was 0.622 µM and 0.698 µM. For the same compound, the TGI (T-47D breast) was 4.27 µM, the GI50 (DMS 273 small cell lung) was 0.282 µM and the TGI (DMS 273 small cell lung) was 1.26 µM and 4.29 µM. For the same compound, the TGI (MDA-MB-231 breast) was 0.0927 µM, the TGI (KM12 colon) was > 10 µM and 2.33 µM and the TGI (SK-MEL-2 melanoma) was 0.597 µM and 1.32 µM and 1.16 µM. The TGI (MOLT-4 leukemia) was > 7.73 µM and 24.6 µM, the GI50 (LXFL 529 NSCLC) was 0.712 µM and the TGI (LXFL 529 NSCLC) was 1.55 µM and 6.67 µM. For the same compound, the TGI (UACC-257 melanoma) was 1.84 µM and 3.94 µM and 1.62 µM, the GI50 (KM20L2 colon) was 0.66 µM and the TGI (KM20L2 colon) was > 5.6 µM. For the same compound, the GI50 (CAKI-1 renal) was 0.211 µM and 0.436 µM, the TGI (CAKI-1 renal) was 0.473 µM and 0.813 µM and the GI50 (COLO 205 colon) was 0.337 µM. For the same compound, the TGI (COLO 205 colon) was > 10 µM and 7.92 µM and 1.35 µM, the TGI (PC-3 prostate) was 5.56 µM and the TGI (SW-620 colon) was > 4.83 µM and 6.87 µM and 1.64 µM. For the same compound, the GI50 (SF-295 CNS) was 0.275 µM, the GI50 (ACHN renal) was 0.268 µM and the TGI (A549 NSCLC) was > 5.82 µM and 8.6 µM and 10.3 µM. The GI50 (OVCAR-4 ovarian) was 0.343 µM, the TGI (OVCAR-4 ovarian) was 3.21 µM and 4.57 µM and 11.5 µM and the GI50 (TK-10 renal) was 0.36 µM and 1.68 µM. The TGI (TK-10 renal) was 0.77 µM and 3.23 µM, the TGI (RPMI-8226 leukemia) was 2.16 µM and 3.57 µM and 11 µM and the TGI (OVCAR-8 ovarian) was > 10 µM and 8.1 µM. The GI50 (SNB-75 CNS) was 0.0721 µM and 0.193 µM, the GI50 (SK-MEL-5 melanoma) was 0.31 µM and the TGI (SK-MEL-5 melanoma) was 1.23 µM and 3.62 µM and 1.27 µM. For the same compound, the GI50 (RXF-631 renal) was 0.75 µM, the TGI (RXF-631 renal) was > 4.22 µM and 3.61 µM and the TGI (NCI/ADR-RES ovarian) was 17.1 µM. The GI50 (SNB-19 CNS) was 0.407 µM, the TGI (SNB-19 CNS) was 1.32 µM and 5.45 µM and 1.19 µM and the TGI (BT-549 breast) was 0.0362 µM. The GI50 (DMS 114 small cell lung) was 2 µM, the TGI (DMS 114 small cell lung) was 5.21 µM and 9.71 µM and the GI50 (SR leukemia) was 1.2 µM and 0.33 µM. For the same compound, the TGI (SR leukemia) was > 4.6 µM and 9.08 µM and 14.5 µM, the GI50 (786-0 renal) was 0.21 µM and the GI50 (U251 CNS) was 0.229 µM. The GI50 (NCI-H226 lung) was 0.252 µM, the GI50 (CCRF-CEM leukemia) was 0.253 µM and 0.709 µM and the TGI (CCRF-CEM leukemia) was 2.02 µM and 4.52 µM. For the same compound, the TGI (NCI-H460 lung) was > 10 µM and 1.62 µM, the GI50 (LOX IMVI melanoma) was 0.574 µM and the TGI (LOX IMVI melanoma) was 1.3 µM and 3.18 µM. For the same compound, the TGI (HCT-116 colon) was 3.63 µM and 7.31 µM and 1.15 µM, the GI50 (HCT-15 colon) was 0.273 µM and the TGI (HCT-15 colon) was > 8.33 µM and 3.82 µM.
